Results on three compounds are retold here after patent US20240400572A1, “COMPOUNDS AND METHODS FOR TREATING CANCERS THAT ARE MGMT DEFICIENT REGARDLESS OF MMR STATUS” (Yale University, priority 2021, published 2024).

“Also recorded” adds a separate entry of the source. Where two headings read alike, the source gives them in different places.

In data set [1] the test system is four isogenic LN229 glioblastoma cell lines (MGMT+/−, MMR+/−). The class given is cell-based. The settings on record: for cytotoxicity and selectivity in the four isogenic cell lines (in words): LN229 MGMT+/−, MMR+/− cells; for therapeutic index: IC50 in MGMT proficient and MMR proficient cells divided by IC50 in MGMT deficient and MMR deficient cells (FIG. 8). The procedure:
Short-term Cell Viability Assay. Cells were seeded in 96-well plates at 1000 or 2000 cells/well and allowed to adhere at 23° C. for 60 min and then incubated overnight at 37° C. Cells were treated with indicated concentrations of compounds in triplicate for 4-6 days prior to fixation with 3.7% paraformaldehyde and nuclear staining with 1 μg/mL Hoechst 33342 dye. Cells were imaged on a Cytation 3 imaging reader (BioTek) and quantified using CellProfiler software.
Statistical analysis. Statistical analysis was performed using GraphPad Prism software. Data are presented as mean or median±SD or SEM as indicated. For in vitro short-term growth delay experiments, IC50 values were determined from the nonlinear regression equation, [inhibitor] vs normalized response with variable slope. For micronuclei assays, comparisons were made with one-way ANOVA and Sidak correction for multiple comparisons. For xenograft growth delay experiments, comparisons were made with Mann-Whitney test (for comparison of 2 groups) or Kruskal-Wallis test with FDR-adjusted p-values with Q set to 5% (for comparison of ≥3 groups). For xenograft survival analysis, Kaplan-Meier analysis was used to evaluate survival rate based on death or removal from study when body weight loss exceeded 20% of initial body weight
We synthesized the imidazotetrazine 4a (KL-50) and the triazene 4b (KL-85), as vehicles to deliver 2-fluoroethyl diazonium (4c), and a series of related agents to probe structure-activity relationships in tissue culture (FIG. Z1, D and F). The 2-fluoropropyl- and 3-fluoropropyl-triazenes (10 and 11, respectively) were prepared by diazotization of 4-aminoimdazole-5-carboxamide, followed by the addition of the respective amine. All other triazenes were prepared according to literature procedures. We evaluated the cytotoxicity of our compounds in short-term cell viability assays against four isogenic LN229 glioblastoma cell lines engineered to be proficient or deficient in MGMT and/or MMR activity, using short hairpin RNAs (shRNAs) targeting MSH2 (referred to as MGMT+/−, MMR+/− cells hereafter; FIG. ZS2A). This approach allowed us to rapidly and rigorously interrogate the relationship between MGMT and MMR status and compound activity.
The compounds 10a through 10l and TMZ were tested in the short-term cell viability assay.

For data set [2], the system named is LN229 MGMT+/−, MMR+/− cells. The experiment in a line: Micronuclei analysis. The class given is cell-based, human. The settings on record: 20 μM, 48 h. An excerpt: Micronuclei Analysis. An automated image analysis pipeline was developed by YCMD using InCell Analyzer software to quantify micronuclei formation. Nuclei and micronuclei were segmented based on Hoechst nucleic acid dye staining channel. A perinuclear margin was applied around the nuclei to approximate the extent of the cytoplasm and identify micronuclei associated with the parent nucleus. Cells with nuclei associated with at least 1 micronucleus were considered positive.

Data set [3] deals with LN229 MGMT+/−, MMR+/− cells. The data set is described as follows: Clonogenic cell survival assay. As to conditions: cell status given in the value.
Method: Cells were trypsinized, washed, counted, and diluted in a medium containing various concentrations of drug. They were then immediately seeded in six-well plates in triplicate at three-fold dilutions, ranging from 9000 to 37 cells per well. Depending on colony size, these plates were kept in the incubator for 10 to 14 days. After incubation, colonies were washed in phosphate-buffered saline (PBS), stained with crystal violet, counted, and quantified.
Data set [4] concerns CHK1 and CHK2 phosphorylation in LN229 MGMT+/−, MMR+/− cells. The data set is described as follows: Western blotting of checkpoint kinase phosphorylation. Type of data set: cell-based, human. As to conditions: 20 μM, 24 or 48 h. The method, then: Western Blotting. For phospho-protein analysis experiments, cells were lysed in 1× RIPA buffer (Cell Signaling Technology, #9806) supplemented with 1× Protease Inhibitor Cocktail (Roche) and 1× PhosSTOP Phosphatase Inhibitor Cocktail (Sigma). For all other western blot analyses, cells were lysed in lysis buffer (50 mM HEPES, 250 mM NaCl, 5 mM EDTA, 1% NP-40) supplemented with 1× Protease Inhibitor Cocktail (Roche). The de-ubiquitination inhibitor N-ethylmaleimide (NEM, 4 mM) was added in FANCD2 ubiquitination analysis experiments. Proteins were separated using NuPAGE 4-12% Bis-Tris or 3-8% Tris-Acetate Gels (Invitrogen) and transferred to Immobilon-P PVDF membrane (Millipore) for western blotting. Membranes were blocked with 5% milk in TBS-T for 1 h prior to primary antibody addition overnight at 4° C. […] Where shown, bands were quantified using ImageJ software.
Background: Immunoblotting shows a protein as a band on a membrane.

The subject of data set [5] is Isogenic glioma (Ln 229) cells, MGMT−/MMR−. The experiment in a line: Clonogenic Survival Assay (FIG. 9). The class given is cell-based, human. The settings on record: identical concentrations of test compound. The method, then:
Clonogenic Survival Assay (FIG. 9): Isogenic glioma (Ln 229) cells were pretreated with the test drug in culture for 48-72 hours at the specified dilutions. Cells were then transferred in media without drug to 6-well plates in triplicate at 3-fold dilutions ranging from 9,000 to 37 cells per well. After 14 days, plates were washed with PBS and stained with crystal violet. Colonies were counted by hand. Counts were normalized to plating efficiency of the corresponding treatment condition.

Take `CNC(=O)c1ncn2c(=O)n(CCF)nnc12` [Compound I-1, 3-(2-fluoroethyl)-N-methyl-4-oxo-3H,4H-imidazo[4,3-d][1,2,3,5]tetrazine-8-carboxamide]: in data set [1] (listed as N-methyl KL50), the “cytotoxicity and selectivity in the four isogenic cell lines (in words)” value (“cytotoxicity and selectivity” below) was “comparable to those for KL50 itself; also recorded: preferable toxicity for MGMT− cells compared to MGMT^+ cells, regardless of MMR status”.

For the compound `NC(=O)c1ncn2c(=O)n(CCF)nnc12` [KL-50, 3-(2-fluoroethyl)-4-oxo-3H,4H-imidazo[4,3-d][1,2,3,5]tetrazine-8-carboxamide], in data set [2], the “micronuclei formation (in words)” value is reported as “significant increase in micronuclei was observed at 48 h”. Further, the “clonogenic survival (in words)” value in data set [3] is “robust antitumor activity in MGMT− cells, independent of MMR status; also recorded: minimal toxicity to MGMT+ cells at doses up to at least 200 μM”. Besides, in data set [1], the therapeutic index came out at 26.64; the “cytotoxicity and selectivity” value is “preferable toxicity for MGMT− cells compared to MGMT^+ cells, regardless of MMR status”. Besides, the “selectivity for MGMT-deficient cells” value in data set [1] (LN229 MGMT+ versus MGMT− cells) is on record as ~25 fold. Besides, the “cytotoxicity and selectivity” value in data set [1] (listed as 4a) is recorded as “mirrored that of 4b”. Further, the “CHK1 and CHK2 phosphorylation (in words)” value in data set [4] is “induced CHK1 and CHK2 phosphorylation in MGMT− cells regardless of MMR status”. The “cells survived (fraction)” value in data set [5] is “less than 10^−4”.

Take `Cn1nnc2c(C(N)=O)ncn2c1=O` [TMZ, temozolomide, reference compound]: in data set [2], the “micronuclei formation (in words)” value is “smaller increases in G1-phase foci and micronuclei formation at 48 h in MGMT−/MMR+ cells; also recorded: did not observe foci induction or micronuclei formation in MGMT−/MMR− cells”. Moreover, in data set [3], the “clonogenic survival (in words)” value was “negligible activity in MGMT+LN229 cells, irrespective of MMR status; also recorded: robust tumor cell killing in MGMT−, MMR+ cells that was abolished in isogenic cells lacking MMR”. The therapeutic index entry in data set [1] is “less than one”. Moreover, the “CHK1 and CHK2 phosphorylation (in words)” value in data set [4] was “only induced phospho-CHK1 and —CHK2 in MGMT−/MMR+ cells”. The cells survived result in data set [5] was “about 100%”.
